Experimental findings from patent US20060009618A1, “Expression receptors with 7 transmembrane domains in baculovirus-insect cell system” (priority 2002, published 2006) are described below.

The subject of one assay is non-infected Sf9 cells. Kind of assay: Calcium imaging (fura-2) in non-infected Sf9 cells. The class given is cell-based, Spodoptera frugiperda. Conditions: ionophore at 5 μM, FIG. 2 top graph. The protocol:
In a first series of experiments, the possibility of measuring the calcium response in Sf9 cells using the calcium imaging technique was tested.
The protocol used for the assays is as follows:
(§1) Sf9 cells are cultured on 24-well plates containing 12 mm coverslips. Before the experiments, the culture medium is removed and washed with a buffer containing 10 mM of NaCl, 60 mM of KCl, 25 mM of MgCl2, 1.8 mM of CaCl2, 4 mM of D-glucose, 110 mM of sucrose and 10 mM of 2-(N-morpholino)ethanesulfonic acid; the pH is adjusted to 6.2 at ambient temperature with Trizma base.
The cells are incubated for 1 hour at ambient temperature in the dark with a solution of MBS containing fura 2-AM (4 μm) (molecular probe). […]
The fura-2 fluorescence measurements are carried out using a T.I.L.L Photonics GmbH, (Planegg) Polychrome II multipath wavelength illumination system for extinction. […] The acquisition and the calculation of the fluorescence images are carried out using the T.I.L.L-Vision program. […] The fluorescence ratios (f340/f380) are calculated for the intracellular Ca^2+ variations. […]
The Ca^2+ signals are the result of the mean determined on all the cells in the field of the camera (gray signal) and of the mean for the responding cells (black signal) (n=4).

For assay [1], the system named is octopamine receptor naturally present in Sf9 cells. Briefly: Octopamine control, calcium imaging (fura-2) in Sf9 cells. To be noted: 50 μM. Type of assay: cell-based, Spodoptera frugiperda. The protocol:
as §1
The cells are incubated for 1 hour at ambient temperature in the dark with a solution of MBS containing fura 2-AM (4 μm) (molecular probe). The cells are then washed with an excess of MBS without fura 2-AM and mounted in a Coverwell chamber (Polylabo, France) (diameter: 9 mm; thickness: 2.5 mm; cross section: 22.5).
The chamber is placed under the microscope and the cells are perfused under gravity with 0.85 ml/min (3.78 cm/min) at ambient temperature (23° C.).
The fura-2 fluorescence measurements are carried out using a T.I.L.L Photonics GmbH, (Planegg) Polychrome II multipath wavelength illumination system for extinction. The microscope (Olympus) is equipped with a long-distance objective (×20). The spatio-temporal Ca^2+ distributions are studied using a PCO interline camera. […] The acquisition and the calculation of the fluorescence images are carried out using the T.I.L.L-Vision program. […] The fluorescence ratios (f340/f380) are calculated for the intracellular Ca^2+ variations. […]

For assay [2], the target named is T1, HA-Gα16 (Gα16 protein with N-terminal HA epitope), expressed in Sf9 cells (human, UniProt P30679 1-374).
T1 construct: whole, on cells; Intracellular protein with a submembrane cytoplasmic location in infected Sf9 cells; also called Ga16; G16
T1 sequence (looked up): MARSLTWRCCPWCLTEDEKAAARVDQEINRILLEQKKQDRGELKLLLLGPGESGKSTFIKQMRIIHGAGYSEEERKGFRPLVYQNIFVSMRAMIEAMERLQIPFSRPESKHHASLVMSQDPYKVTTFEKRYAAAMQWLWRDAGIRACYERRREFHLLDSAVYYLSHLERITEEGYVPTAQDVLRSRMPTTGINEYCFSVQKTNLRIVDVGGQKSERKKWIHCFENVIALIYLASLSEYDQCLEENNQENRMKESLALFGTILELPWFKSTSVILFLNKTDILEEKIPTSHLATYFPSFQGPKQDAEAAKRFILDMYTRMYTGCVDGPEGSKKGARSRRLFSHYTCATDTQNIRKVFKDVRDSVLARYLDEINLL
Kind of assay: colocalization by immunofluorescence, confocal microscopy, Sf9 cells infected with double-recombinant baculovirus. The protocol:
The cellular location of the ORs and of the G proteins were studied by immunofluorescence 36 hours after infection. The ORs are detected by means of an anti-FLAG primary antibody and an FITC-labeled secondary antibody. The G proteins are detected by means of a rhodamine-labeled anti-HA antibody.
The labeled cells are observed by confocal microscopy. In the cells infected with the AcMNPV209 and AcMNPV210 baculoviruses, labeling is observed to be located at the cell surface, with a punctate distribution typical of membrane receptors. In the cells infected with the AcSLP10G₁₆ and AcSLP10Golf baculoviruses, labeling is observed to have a submembrane cytoplasmic location. In the cells infected with the double-recombinant baculoviruses AcG₁₆-209, AcGolf-210, AcG₁₆-209 and AcGolf-210, colocalization of the receptor with each G protein co-expressed is observed. No major difference is observed between OR17-209 and OR17-210 as regards preferential binding with Golf or G₁₆. It therefore appears that these two receptors are capable of coupling to the two G proteins in insect cells.

As for `CNc1c(Br)cc2oc(C[C@H]3O[C@@]4(CC[C@H]3C)O[C@H]([C@H](C)C(=O)c3ccc[nH]3)[C@H](C)C[C@H]4C)nc2c1C(=O)O` [4-bromo A23187, 4-bromo-A23187], the “intracellular Ca2+ variation (fluorescence ratio f340/f380)” value in the assay on non-infected Sf9 cells is recorded as “induces a large increase in intracellular calcium”.

As for `NCC(O)c1ccc(O)cc1` (stereo not shown) [octopamine], the intracellular calcium entry in assay [1] (all baculovirus-infected Sf9 cells (OR17-209 or OR17-210 alone, with G16 or with Golf), 36 hours after infection, FIG. 3) was “induces an increase in intracellular calcium”. For the same molecule, in assay [1] (non-infected Sf9 cells, FIG. 2 bottom graph, B), the “intracellular Ca2+ variation (fluorescence ratio f340/f380)” value is “induces an increase in intracellular calcium”.

B1: human olfactory receptor OR17-209 with N-terminal FLAG epitope, expressed in Sf9 cells from baculovirus AcMNPV209 (receptor, UniProt P47890 1-313, looked up, not shown: small tags and cut ends)
chain: MEGKNLTSISECFLLGFSEQLEEQKPLFGSFLFMYLVTVAGNLLIILVIITDTQLHTPMYFFLANLSLADACFVSTTVPKMLANIQIQSQAISYSGCLLQLYFFMLFVMLEAFLLAVMAYDCYVAICHPLHYILIMSPGLCIFLVSASWIMNALHSLLHTLLMNSLSFCANHEIPHFFCDINPLLSLSCTDPFTNELVIFITGGLTGLICVLCLIISYTNVFSTILKIPSAQGKRKAFSTCSSHLSVVSLFFGTSFCVDFSSPSTHSAQKDTVASVMYTVVTPMLNPFIYSLRNQEIKSSLRKLIWVRKIHSP
notes: whole, on cells; The construct encodes EGT signal peptide, FLAG and receptor; also called OR-209
Regarding B1, in assay [2], the binding result was “binds”.
